The text below walks through data of patent publication US11173126B2, “Nanoalum particles comprising a PAA sizing agent” (priority 2016, dated 2021).

The nature of series [1]: Particle size (Z-ave) and polydispersity by dynamic light scattering. It is filed as physicochemical. The conditions noted are these: single non-pegylated phospholipid included during milling; data not shown.
Series [2] has as its system C57Bl/6 mice. The conditions noted are these: mouse, in vivo.
The test system of series [3] is C57/BL6 mice. As to conditions: mouse, in vivo.

On to `CCCCCCCCCCCCCC(=O)OC[C@H](COP(=O)(O)OCCN)OC(=O)CCCCCCCCCCCCC` [DMPE], for which, in series [1], the “effectiveness as sizing agent (aggregation of alum)” value is reported as “not found to be effective sizing agents”.
As to “Distearoylglycerophosphoethanolamine [DSPE]”, the “effectiveness as sizing agent (aggregation of alum)” value in series [1] is given as “not found to be effective sizing agents”.
As to Poly(acrylic acid) [PAA], the “ID97-specific CD4+ T cell response (CD154, IFN-γ, TNF, IL-2)” value in series [2] is recorded as “low frequency”. The “luciferase expression from RNA replicon” value in series [3] was “does not deliver and/or induce an expressible level”.
